Data set [1] relates to human microglia. Kind of data set: Reduction in C26:0 LPC in human microglia in vitro. The data set is classed as cell-based. The following applies: half maximal reduction in C26:0 LPC. The protocol: Lysophosphatidylcholine (LPC) VLCFA were generated from straight chain VLCFA (SC-VLCFA) and were used clinically for newborn screening (Vogel et al., Mol. Genet. Metab. (2015) 114(4):599-603). In vitro efficacy studies were performed by measuring LPC VLCFA level (measured as LPC synthesis) in various cell lines, specifically in 1) human HEK cells, 2) patient derived cells, and 3) human microglia, which are disease relevant CNS cells. Compound 87's dose response relationships and IC50 values were measured in HEK cells, primary patient fibroblasts, immortalized patient lymphocytes, and a human microglial cell line. […]
Immortalized human microglia (Applied Biological Materials (ABM); catalog #T0251; Richmond BC, Canada) were grown and sub-cultured following the subculturing protocols from ABM except DMEM (high glucose, pyruvate; LifeTech Cat. No. 11995) was used instead of Prigrow III medium and standard tissue culture grade flasks and plates were used. […] An equal volume of media was used to neutralize the detachment media and the cells were collected and counted. […]
Upon the completion of the compound treatment, the media (with compound treatment) was aspirated from the well. […] The plate was sealed with a plate tape and put at −80° C. for further VLCFA extraction and VLCFA quantitation on LC-MS, as described below.
VLCFA Extraction and Quantitation on LCMS: […]

The nature of data set [2]: Body weight and adverse effects during treatment in the thermal sensitivity studies. The data set is classed as in vivo, mouse. Particulars: ABCD1 KO mice, prophylactic (5 or 20 mg/kg) and therapeutic (32 or 64 mg/kg) PO QD experiments. The protocol: For the prophylactic study, mice were tested beginning at 10 months of age (before the loss of pain sensitivity) using doses of either 5 or 20 mg/kg. For the therapeutic study, mice were tested beginning at 18 months of age, after there was already a significant loss of pain sensitivity, using doses of either 32 or 64 mg/kg. […] The Plantar test (using a Hargreaves apparatus) was used and measured the latency to respond to a thermal stimulus using the following protocol. An individual mouse was placed into an individual compartment with a glass floor for about 10-15 minutes until they were settled. Each individual mouse was given three trials with an infrared source on each hind paw (alternated hind paws each time, and waited 5 minutes between each trial). The infrared source was placed under the glass floor and was positioned by the operator directly beneath the hind paw. A trial was commenced by depressing a key/button which turned on the infrared source and started a digital timer. When a response was observed (paw withdrawal), the key/button was released and the latency to respond was recorded (in seconds).

SMILES strings stand for the structures. pIC50: −log10 of the molar value.

What is called pIC50 is the IC50 on a negative log10 scale, so that one unit is a factor of ten. A higher pIC50 goes with a low IC50. In turn, `O=C(Nc1ccn(-c2ccnc(F)c2)n1)C1(c2ccccc2F)CC1` [Compound 87, 1-(2-fluorophenyl)-N-[1-(2-fluoro-4-pyridyl)pyrazol-3-yl]cyclopropanecarboxamide] had a pIC50 in data set [1] of 7.96. In addition, the “body weight and adverse effects during treatment” value in data set [2] is “did not have a significant drop in body weight or any other noticeable adverse effect”.

Values taken from US20180251431A1 (VERTEX PHARMACEUTICALS INCORPORATED, priority 2016, published 2018).
